From patent publication US20030237103A1, “Methods and compositions for pharmacological and toxicological evaluation of test agents” (priority 2002, published 2003)

Assays:
[1] = tested on: Panel and outbred (CD-IGS) rat strains; test: Clinical chemistry endpoints of cisplatin-treated vs. vehicle rats; assay type: in vivo; design: T-test value AST / T-test value ALT: unit not given here; conditions: cisplatin 5 mg/Kg vs. vehicle
[2] = tested on: Panel and outbred (CD-IGS) rat strains; test: Proteinuria, glucose excretion and renal histology after cisplatin; assay type: in vivo; conditions: 5 mg/Kg cisplatin
[3] = tested on: Panel, CD-IGS and parental rat strains; test: Plasma triglyceride lowering by clofibrate; assay type: in vivo; conditions: between WKY×LEW, WKY×BN and WKY×F344; 250 mg/Kg
Description: Triglyceride levels in plasma were measured following euthanasia on day 7. Plotted are the percent differences in triglyceride values in a particular drug treatment group.

[4] = tested on: Panel, CD-IGS and parental rat strains; conditions: in vivo, 250 mg/kg
Description: Alanine transferase (ALT) levels in plasma an index of liver damage were measured in outbred and inbred strains (top panel) and the Panel F1 hybrids (bottom panel) following euthanasia on day 7. Plotted are the average ALT values for drug (left) and vehicle (right) within a particular drug treatment group (designated by strain). The number of animals tested in each group is denoted below the strain designation in parenthesis as # drug treated animas/#vehicle treated animals.
We delivered the clofibrate orally by gavage (250 mg/Kg in hydroxyproply methyl cellulose) to the rats on 6 consecutive days.

[5] = tested on: Panel, CD-IGS and parental rat strains; test: Liver histology after clofibrate; assay type: in vivo
Text: Hypolipidemic drugs, such as clofibrate, commonly induce peroxisomal proliferation and an increase in the activity of peroxisomal beta-oxidation pathway. We looked for these changes in our rats by histological analysis of a section of the left lateral lobe from livers of either clofibrate or vehicle treated rats. While we could detect cellular differences (e.g. hepatocelluar hypertrophy, hepatocellular vacuolization, anisokaryosis and portal lymphocytic infiltrates) among the clofibrate treated livers versus the vehicle controls within any strain.

[6] = tested on: rat liver peroxisomal fatty-acyl CoA oxidase; test: Fluorometric assay of liver peroxisomal fatty-acyl CoA oxidase (FAO) activity after clofibrate; assay type: in vivo; conditions: CD-IGS rats
Description: Peroxisomal fractions from livers of each strain were measured for FAO activity. In order to account for intra-strain variability, graphed are the average values derived by subtracting the vehicle FAO (average) from each individual drug induced FAO. The y-axis represents the FAO activity (nmol H2O2 per minute-mg peroximal protein).
The assay was done by using a fluorometric assay for rat liver peroxisomal fafty-acyl CoA oxidase activity (FAO). The first step of this assay uses a palmitoyl-CoA dependent NAD+ reducing system to oxidize FAO and produce H2O2. The H2O2 is then coupled in a peroxidase catalyzed reaction to the oxidation of scopoletin, a naturally fluorescent compound. A fall in fluorescence of the sample indicates an increase in FAO activity which subsequently reflects the increase in the fatty acid oxidase in the liver.
Six clofibrate samples and four vehicle samples were individually tested for FAO activity in duplicate tests. Using an H2O2 standard curve enables the change in fluorescence to be converted to FAO activity units (Walusimbi-Kisitu, M. and E. H. Harrison, J. Lipid Res. 24(8):1077-1084, 1983).

N.N.[Cl][Pt][Cl] [cisplatin]
T-test value ALB ([1]; BNxF344 rats): 0.111
T-test value ALP ([1]; BNxF344 rats): 0.157
T-test value ALT ([1]; BNxF344 rats): 0.600
T-test value ANION GAP ([1]; BNxF344 rats): 0.069
T-test value AST ([1]; BNxF344 rats): 0.780
T-test value BICARB ([1]; BNxF344 rats): 0.003
T-test value BUN ([1]; BNxF344 rats): 0.002
T-test value CA ([1]; BNxF344 rats): 0.642
T-test value CHOL ([1]; BNxF344 rats): 0.001
T-test value CREAT ([1]; BNxF344 rats): 0.001
T-test value GGT ([1]; BNxF344 rats): 0.351
T-test value GLOB ([1]; BNxF344 rats): 0.116
T-test value GLU ([1]; BNxF344 rats): 0.477
T-test value K ([1]; BNxF344 rats): 0.133
T-test value NA ([1]; BNxF344 rats): 0.851
T-test value PHOS ([1]; BNxF344 rats): 0.230
T-test value TBILI ([1]; BNxF344 rats): 0.005
T-test value TP ([1]; BNxF344 rats): 0.877
T-test value TRIG ([1]; BNxF344 rats): 0.153
T-test value ALB ([1]; CD-IGS rats): 0.096
T-test value ALP ([1]; CD-IGS rats): 0.567
T-test value ALT ([1]; CD-IGS rats): 0.732
T-test value ANION GAP ([1]; CD-IGS rats): 0.440
T-test value AST ([1]; CD-IGS rats): 0.433
T-test value BICARB ([1]; CD-IGS rats): 0.436
T-test value BUN ([1]; CD-IGS rats): 0.003
T-test value CA ([1]; CD-IGS rats): 0.268
T-test value CHOL ([1]; CD-IGS rats): 0.393
T-test value CREAT ([1]; CD-IGS rats): 0.002
T-test value GGT ([1]; CD-IGS rats): 0.351
T-test value GLOB ([1]; CD-IGS rats): 0.750
T-test value GLU ([1]; CD-IGS rats): 0.965
T-test value K ([1]; CD-IGS rats): 0.465
T-test value NA ([1]; CD-IGS rats): 0.095
T-test value PHOS ([1]; CD-IGS rats): 0.943
T-test value TBILI ([1]; CD-IGS rats): 0.742
T-test value TP ([1]; CD-IGS rats): 0.080
T-test value TRIG ([1]; CD-IGS rats): 0.133
T-test value ALB ([1]; LEWxBN rats): 0.000
T-test value ALP ([1]; LEWxBN rats): 0.001
T-test value ALT ([1]; LEWxBN rats): 0.593
T-test value ANION GAP ([1]; LEWxBN rats): 0.058
T-test value AST ([1]; LEWxBN rats): 0.341
T-test value BICARB ([1]; LEWxBN rats): 0.016
T-test value BUN ([1]; LEWxBN rats): 0.000
T-test value CA ([1]; LEWxBN rats): 0.333
T-test value CHOL ([1]; LEWxBN rats): 0.000
T-test value CREAT ([1]; LEWxBN rats): 0.000
T-test value GGT ([1]; LEWxBN rats): 0.339
T-test value GLOB ([1]; LEWxBN rats): 0.007
T-test value GLU ([1]; LEWxBN rats): 0.024
T-test value K ([1]; LEWxBN rats): 0.036
T-test value NA ([1]; LEWxBN rats): 0.230
T-test value PHOS ([1]; LEWxBN rats): 0.063
T-test value TBILI ([1]; LEWxBN rats): 0.463
T-test value TP ([1]; LEWxBN rats): 0.148
T-test value TRIG ([1]; LEWxBN rats): 0.085
T-test value ALB ([1]; LEWxF344 rats): 0.534
T-test value ALP ([1]; LEWxF344 rats): 0.214
T-test value ALT ([1]; LEWxF344 rats): 0.979
T-test value ANION GAP ([1]; LEWxF344 rats): 0.711
T-test value AST ([1]; LEWxF344 rats): 0.739
T-test value BICARB ([1]; LEWxF344 rats): 0.596
T-test value BUN ([1]; LEWxF344 rats): 0.000
T-test value CA ([1]; LEWxF344 rats): 0.448
T-test value CHOL ([1]; LEWxF344 rats): 0.000
T-test value CREAT ([1]; LEWxF344 rats): 0.000
T-test value GLOB ([1]; LEWxF344 rats): 0.361
T-test value GLU ([1]; LEWxF344 rats): 0.695
T-test value K ([1]; LEWxF344 rats): 0.152
T-test value NA ([1]; LEWxF344 rats): 0.738
T-test value PHOS ([1]; LEWxF344 rats): 0.831
T-test value TBILI ([1]; LEWxF344 rats): 0.663
T-test value TP ([1]; LEWxF344 rats): 0.492
T-test value TRIG ([1]; LEWxF344 rats): 0.540
T-test value ALB ([1]; Panel (all six strains)): 0.000
T-test value ALP ([1]; Panel (all six strains)): 0.000
T-test value ALT ([1]; Panel (all six strains)): 0.693
T-test value ANION GAP ([1]; Panel (all six strains)): 0.014
T-test value AST ([1]; Panel (all six strains)): 0.227
T-test value BICARB ([1]; Panel (all six strains)): 0.000
T-test value BUN ([1]; Panel (all six strains)): 0.000
T-test value CA ([1]; Panel (all six strains)): 0.974
T-test value CHOL ([1]; Panel (all six strains)): 0.000
T-test value CREAT ([1]; Panel (all six strains)): 0.000
T-test value GGT ([1]; Panel (all six strains)): 0.024
T-test value GLOB ([1]; Panel (all six strains)): 0.016
T-test value GLU ([1]; Panel (all six strains)): 0.561
T-test value K ([1]; Panel (all six strains)): 0.000
T-test value NA ([1]; Panel (all six strains)): 0.414
T-test value PHOS ([1]; Panel (all six strains)): 0.004
T-test value TBILI ([1]; Panel (all six strains)): 0.027
T-test value TP ([1]; Panel (all six strains)): 0.487
T-test value TRIG ([1]; Panel (all six strains)): 0.058
T-test value ALB ([1]; WKYxBN rats): 0.337
T-test value ALP ([1]; WKYxBN rats): 0.956
T-test value ALT ([1]; WKYxBN rats): 0.222
T-test value ANION GAP ([1]; WKYxBN rats): 0.485
T-test value AST ([1]; WKYxBN rats): 0.189
T-test value BICARB ([1]; WKYxBN rats): 0.649
T-test value BUN ([1]; WKYxBN rats): 0.001
T-test value CA ([1]; WKYxBN rats): 0.064
T-test value CHOL ([1]; WKYxBN rats): 0.000
T-test value CREAT ([1]; WKYxBN rats): 0.002
T-test value GGT ([1]; WKYxBN rats): 0.170
T-test value GLOB ([1]; WKYxBN rats): 0.007
T-test value GLU ([1]; WKYxBN rats): 0.968
T-test value K ([1]; WKYxBN rats): 0.014
T-test value NA ([1]; WKYxBN rats): 0.165
T-test value PHOS ([1]; WKYxBN rats): 0.081
T-test value TBILI ([1]; WKYxBN rats): 0.379
T-test value TP ([1]; WKYxBN rats): 0.458
T-test value TRIG ([1]; WKYxBN rats): 0.210
T-test value ALB ([1]; WKYxF344 rats): 0.001
T-test value ALP ([1]; WKYxF344 rats): 0.000
T-test value ALT ([1]; WKYxF344 rats): 0.604
T-test value ANION GAP ([1]; WKYxF344 rats): 0.868
T-test value AST ([1]; WKYxF344 rats): 0.934
T-test value BICARB ([1]; WKYxF344 rats): 0.004
T-test value BUN ([1]; WKYxF344 rats): 0.000
T-test value CA ([1]; WKYxF344 rats): 0.037
T-test value CHOL ([1]; WKYxF344 rats): 0.004
T-test value CREAT ([1]; WKYxF344 rats): 0.000
T-test value GLOB ([1]; WKYxF344 rats): 0.007
T-test value GLU ([1]; WKYxF344 rats): 0.155
T-test value K ([1]; WKYxF344 rats): 0.583
T-test value NA ([1]; WKYxF344 rats): 0.872
T-test value PHOS ([1]; WKYxF344 rats): 0.282
T-test value TBILI ([1]; WKYxF344 rats): 0.008
T-test value TP ([1]; WKYxF344 rats): 0.054
T-test value TRIG ([1]; WKYxF344 rats): 0.041
T-test value ALB ([1]; WKYxLEW rats): 0.453
T-test value ALP ([1]; WKYxLEW rats): 0.342
T-test value ALT ([1]; WKYxLEW rats): 0.874
T-test value ANION GAP ([1]; WKYxLEW rats): 0.033
T-test value AST ([1]; WKYxLEW rats): 0.689
T-test value BICARB ([1]; WKYxLEW rats): 0.266
T-test value BUN ([1]; WKYxLEW rats): 0.009
T-test value CA ([1]; WKYxLEW rats): 0.870
T-test value CHOL ([1]; WKYxLEW rats): 0.019
T-test value CREAT ([1]; WKYxLEW rats): 0.025
T-test value GGT ([1]; WKYxLEW rats): 0.363
T-test value GLOB ([1]; WKYxLEW rats): 0.057
T-test value GLU ([1]; WKYxLEW rats): 0.289
T-test value K ([1]; WKYxLEW rats): 0.137
T-test value NA ([1]; WKYxLEW rats): 1.000
T-test value PHOS ([1]; WKYxLEW rats): 0.055
T-test value TBILI ([1]; WKYxLEW rats): 0.364
T-test value TP ([1]; WKYxLEW rats): 0.008
T-test value TRIG ([1]; WKYxLEW rats): 0.677
degree of proteinuria, glucose excretion and histologic damage to renal proximal tubules between the strains [2]: marked differences

CCOC(=O)C(C)(C)Oc1ccc(Cl)cc1 [clofibrate]
variation in magnitude of the fall in plasma triglyceride levels [3]: 3 fold
AST levels (predictor of liver toxicity) [4]: not significantly affected
liver hypertrophy ([5]; all the strains): hypertrophy of the liver
histopathology differences between the strains within the Panel ([5]; left lateral lobe sections, clofibrate vs. vehicle): no quantitative differences
hepatotoxic effects relative to other strains (FAO activity) [6]: resistant
